One assay has as its target T1, Acetylcholinesterase (Rattus norvegicus, UniProt P37136).
T1 sequence (P37136 whole entry): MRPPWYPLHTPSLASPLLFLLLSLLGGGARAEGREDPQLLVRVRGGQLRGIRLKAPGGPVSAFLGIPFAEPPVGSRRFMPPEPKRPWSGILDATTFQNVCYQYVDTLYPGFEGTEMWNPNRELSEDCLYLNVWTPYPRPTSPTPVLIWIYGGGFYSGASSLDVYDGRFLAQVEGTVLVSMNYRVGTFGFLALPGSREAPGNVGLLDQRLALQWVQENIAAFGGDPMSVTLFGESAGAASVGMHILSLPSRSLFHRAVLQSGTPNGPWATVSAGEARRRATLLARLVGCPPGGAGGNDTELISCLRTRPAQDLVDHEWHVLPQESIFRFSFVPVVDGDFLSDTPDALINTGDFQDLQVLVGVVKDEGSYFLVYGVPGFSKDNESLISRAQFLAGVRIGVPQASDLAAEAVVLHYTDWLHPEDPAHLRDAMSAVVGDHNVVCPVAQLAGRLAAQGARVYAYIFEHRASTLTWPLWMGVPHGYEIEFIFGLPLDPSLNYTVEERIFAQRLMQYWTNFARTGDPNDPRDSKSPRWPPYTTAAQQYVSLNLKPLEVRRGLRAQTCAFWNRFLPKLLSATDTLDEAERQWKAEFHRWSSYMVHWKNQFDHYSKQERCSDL
Description: Inhibitory activity against rat brain total Acetylcholinesterase (AChE) was determined using Ellman's method. (In general: Ellman's reagent forms a yellow product with free thiols.)

Another assay deals with Butyrylcholinesterase (Rattus norvegicus, UniProt Q9JKC1).
Butyrylcholinesterase, sequence (Q9JKC1 whole entry): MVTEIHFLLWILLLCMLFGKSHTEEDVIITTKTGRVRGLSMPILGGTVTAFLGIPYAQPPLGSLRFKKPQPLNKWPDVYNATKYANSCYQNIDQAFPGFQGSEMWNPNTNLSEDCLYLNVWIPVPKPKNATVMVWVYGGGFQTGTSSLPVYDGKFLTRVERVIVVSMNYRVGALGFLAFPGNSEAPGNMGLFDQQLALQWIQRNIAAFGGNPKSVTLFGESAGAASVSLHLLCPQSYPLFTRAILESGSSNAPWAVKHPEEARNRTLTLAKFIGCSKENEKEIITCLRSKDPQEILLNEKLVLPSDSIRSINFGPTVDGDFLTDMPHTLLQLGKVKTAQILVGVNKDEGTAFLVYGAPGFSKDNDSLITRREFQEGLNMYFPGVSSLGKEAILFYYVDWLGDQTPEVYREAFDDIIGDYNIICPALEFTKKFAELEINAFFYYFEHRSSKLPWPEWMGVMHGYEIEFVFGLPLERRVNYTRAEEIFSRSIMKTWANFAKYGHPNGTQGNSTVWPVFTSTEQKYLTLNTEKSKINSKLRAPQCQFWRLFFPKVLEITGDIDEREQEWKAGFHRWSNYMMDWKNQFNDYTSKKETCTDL

pIC50: −log10 of the molar value.

Description for Butyrylcholinesterase: Inhibitory concentration against rat brain butyrylcholinesterase (BuChE) was determined using Ellman's method

On Acetylcholinesterase, `Cc1nn(-c2ccccc2)c2c(N)c3c(nc12)CCC3` gave a negative-log IC50 (pIC50) of 4.49.
Still for that read-out and setting: next, `Cc1nn(-c2ccccc2)c2nc3c(c(N)c12)CCCC3`: 4.55; `COc1ccc2c3c1C[C@H]1C[C@@H](O)C=C[C@]31CCN(C)C2`: 5.51.
Regarding `Cc1nn(-c2ccccc2)c2nc3nc4c(c(N)c3cc12)CCCC4`, the pIC50 is 5.19 on Acetylcholinesterase and 3.87 on Butyrylcholinesterase.
`Cc1nn(-c2ccccc2)c2c(N)c3c(nc12)CCCC3` had a negative-log IC50 (pIC50) against Acetylcholinesterase of 4.57.
As to `Nc1c2c(nc3nn(-c4ccccc4)cc13)CCCC2`, the negative logarithm of the IC50 (pIC50) on Acetylcholinesterase was 5.22; against Butyrylcholinesterase, 4.50.
On Acetylcholinesterase, `Cc1nn(-c2ccccc2)c2nc3c(c(N)c12)CCC3` gave a pIC50 of 4.51.
Compound `Cc1nn(-c2ccccc2)c2nc3nc4c(c(N)c3cc12)CCC4` gave a negative-log IC50 (pIC50) against Acetylcholinesterase of 4.63.

For orientation: pIC50 means the IC50 on a negative log10 scale, so that one unit is a factor of ten. Lower therefore signals a large IC50.
